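1) Cells in 96-well plates. 2) Compound, 48 h, 5 concentrations. 3) Linear interpolation between surrounding doses. 4) Unreached endpoint = highest concentration. Definition used: TGI = concentration required for complete inhibition of growth.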
What was measured:
Assay in all cases: NCI tumour cell line growth inhibition, 48 h
U251 CNS = tested on: U251 CNS
SK-MEL-5 melanoma = tested on: SK-MEL-5 melanoma
HL-60(TB) leukemia = tested on: HL-60(TB) leukemia
KM12 colon = tested on: KM12 colon
HOP-18 NSCLC = tested on: HOP-18 NSCLC
TK-10 renal = tested on: TK-10 renal
786-0 renal = tested on: 786-0 renal
LXFL 529 NSCLC = tested on: LXFL 529 NSCLC
DLD-1 colon = tested on: DLD-1 colon
HOP-62 NSCLC = tested on: HOP-62 NSCLC
COLO 205 colon = tested on: COLO 205 colon
UACC-62 melanoma = tested on: UACC-62 melanoma
RXF 393 renal = tested on: RXF 393 renal
LOX IMVI melanoma = tested on: LOX IMVI melanoma
KM20L2 colon = tested on: KM20L2 colon
HCT-116 colon = tested on: HCT-116 colon
SF-295 CNS = tested on: SF-295 CNS
HT29 colon = tested on: HT29 colon
RPMI-8226 leukemia = tested on: RPMI-8226 leukemia
SNB-78 CNS = tested on: SNB-78 CNS
DMS 273 small cell lung = tested on: DMS 273 small cell lung
XF 498 CNS = tested on: XF 498 CNS
DMS 114 small cell lung = tested on: DMS 114 small cell lung
RXF-631 renal = tested on: RXF-631 renal
A549 NSCLC = tested on: A549 NSCLC
NCI-H23 lung = tested on: NCI-H23 lung
OVCAR-5 ovarian = tested on: OVCAR-5 ovarian
SN12C renal = tested on: SN12C renal
HCT-15 colon = tested on: HCT-15 colon
SK-MEL-2 melanoma = tested on: SK-MEL-2 melanoma
UACC-257 melanoma = tested on: UACC-257 melanoma
CCRF-CEM leukemia = tested on: CCRF-CEM leukemia
A498 renal = tested on: A498 renal
ACHN renal = tested on: ACHN renal
OVCAR-4 ovarian = tested on: OVCAR-4 ovarian
SF-539 CNS = tested on: SF-539 CNS
CAKI-1 renal = tested on: CAKI-1 renal
MALME-3M melanoma = tested on: MALME-3M melanoma
MOLT-4 leukemia = tested on: MOLT-4 leukemia
SW-620 colon = tested on: SW-620 colon
OVCAR-8 ovarian = tested on: OVCAR-8 ovarian
K-562 leukemia = tested on: K-562 leukemia
SF-268 CNS = tested on: SF-268 CNS
HOP-92 NSCLC = tested on: HOP-92 NSCLC
UO-31 renal = tested on: UO-31 renal
NCI-H460 lung = tested on: NCI-H460 lung
SK-OV-3 ovarian = tested on: SK-OV-3 ovarian
HCC-2998 colon = tested on: HCC-2998 colon
SNB-75 CNS = tested on: SNB-75 CNS
NCI-H522 lung = tested on: NCI-H522 lung
SNB-19 CNS = tested on: SNB-19 CNS
M19-MEL melanoma = tested on: M19-MEL melanoma
OVCAR-3 ovarian = tested on: OVCAR-3 ovarian
IGROV1 ovarian = tested on: IGROV1 ovarian
M14 melanoma = tested on: M14 melanoma
EKVX NSCLC = tested on: EKVX NSCLC
SR leukemia = tested on: SR leukemia
NCI-H226 lung = tested on: NCI-H226 lung

## COC(=O)c1cc2cc(OC)c(OC)cc2cc(C(=O)OC)c1=O
U251 CNS
  TGI: > 100 µM
SK-MEL-5 melanoma
  TGI: > 100 µM
HL-60(TB) leukemia
  TGI: > 100 µM
KM12 colon
  TGI: > 100 µM
HOP-18 NSCLC
  TGI: > 100 µM
TK-10 renal
  TGI: > 100 µM
786-0 renal
  TGI: > 100 µM
LXFL 529 NSCLC
  TGI: > 100 µM
DLD-1 colon
  TGI: > 100 µM
HOP-62 NSCLC
  TGI: > 100 µM
COLO 205 colon
  TGI: > 100 µM
UACC-62 melanoma
  TGI: > 100 µM
RXF 393 renal
  TGI: > 100 µM
LOX IMVI melanoma
  TGI: > 100 µM
KM20L2 colon
  TGI: > 100 µM
HCT-116 colon
  TGI: > 100 µM
SF-295 CNS
  TGI: > 100 µM
HT29 colon
  TGI: > 100 µM
RPMI-8226 leukemia
  TGI: > 100 µM
SNB-78 CNS
  TGI: > 100 µM
DMS 273 small cell lung
  TGI: > 100 µM
XF 498 CNS
  TGI: > 100 µM
DMS 114 small cell lung
  TGI: > 100 µM
RXF-631 renal
  TGI: > 100 µM
A549 NSCLC
  TGI: > 100 µM
NCI-H23 lung
  TGI: > 100 µM
OVCAR-5 ovarian
  TGI: > 100 µM
SN12C renal
  TGI: > 100 µM
HCT-15 colon
  TGI: > 100 µM
SK-MEL-2 melanoma
  TGI: > 100 µM
UACC-257 melanoma
  TGI: > 100 µM
CCRF-CEM leukemia
  TGI: > 100 µM
A498 renal
  TGI: > 100 µM
ACHN renal
  TGI: > 100 µM
OVCAR-4 ovarian
  TGI: > 100 µM
SF-539 CNS
  TGI: > 100 µM
CAKI-1 renal
  TGI: > 100 µM
MALME-3M melanoma
  TGI: > 100 µM
MOLT-4 leukemia
  TGI: > 100 µM
SW-620 colon
  TGI: > 100 µM
OVCAR-8 ovarian
  TGI: > 100 µM
K-562 leukemia
  TGI: > 100 µM
SF-268 CNS
  TGI: > 100 µM
HOP-92 NSCLC
  TGI: > 100 µM
UO-31 renal
  TGI: > 100 µM
NCI-H460 lung
  TGI: > 100 µM
SK-OV-3 ovarian
  TGI: > 100 µM
HCC-2998 colon
  TGI: > 100 µM
SNB-75 CNS
  TGI: > 100 µM
NCI-H522 lung
  TGI: > 100 µM
SNB-19 CNS
  TGI: > 100 µM
M19-MEL melanoma
  TGI: > 100 µM
OVCAR-3 ovarian
  TGI: > 100 µM
IGROV1 ovarian
  TGI: > 100 µM
M14 melanoma
  TGI: > 100 µM
EKVX NSCLC
  TGI: > 100 µM

## C[Si](C)(C)/N=C1\N2C(=NC1(C(F)(F)F)C(F)(F)F)Sc1ccccc12
U251 CNS
  TGI: > 50 µM
SK-MEL-5 melanoma
  TGI: > 50 µM
HL-60(TB) leukemia
  TGI: > 50 µM
KM12 colon
  TGI: > 50 µM
HOP-18 NSCLC
  TGI: > 50 µM
TK-10 renal
  TGI: > 50 µM
786-0 renal
  TGI: > 50 µM
LXFL 529 NSCLC
  TGI: > 50 µM
DLD-1 colon
  TGI: > 50 µM
HOP-62 NSCLC
  TGI: > 50 µM
COLO 205 colon
  TGI: > 50 µM
UACC-62 melanoma
  TGI: > 50 µM
RXF 393 renal
  TGI: > 50 µM
LOX IMVI melanoma
  TGI: > 50 µM
KM20L2 colon
  TGI: > 50 µM
HCT-116 colon
  TGI: > 50 µM
SF-295 CNS
  TGI: > 50 µM
HT29 colon
  TGI: > 50 µM
RPMI-8226 leukemia
  TGI: > 50 µM
SNB-78 CNS
  TGI: > 50 µM
DMS 273 small cell lung
  TGI: > 50 µM
XF 498 CNS
  TGI: > 50 µM
DMS 114 small cell lung
  TGI: > 50 µM
RXF-631 renal
  TGI: > 50 µM
A549 NSCLC
  TGI: > 50 µM
SR leukemia
  TGI: > 50 µM
NCI-H23 lung
  TGI: > 50 µM
OVCAR-5 ovarian
  TGI: > 50 µM
SN12C renal
  TGI: > 50 µM
HCT-15 colon
  TGI: > 50 µM
SK-MEL-2 melanoma
  TGI: > 50 µM
UACC-257 melanoma
  TGI: > 50 µM
CCRF-CEM leukemia
  TGI: > 50 µM
A498 renal
  TGI: > 50 µM
ACHN renal
  TGI: > 50 µM
OVCAR-4 ovarian
  TGI: > 50 µM
SF-539 CNS
  TGI: > 50 µM
CAKI-1 renal
  TGI: > 50 µM
MALME-3M melanoma
  TGI: > 50 µM
MOLT-4 leukemia
  TGI: > 50 µM
SW-620 colon
  TGI: > 50 µM
OVCAR-8 ovarian
  TGI: > 50 µM
K-562 leukemia
  TGI: > 50 µM
SF-268 CNS
  TGI: > 50 µM
HOP-92 NSCLC
  TGI: > 50 µM
UO-31 renal
  TGI: > 50 µM
NCI-H460 lung
  TGI: > 50 µM
SK-OV-3 ovarian
  TGI: > 50 µM
HCC-2998 colon
  TGI: > 50 µM
SNB-75 CNS
  TGI: > 50 µM
NCI-H522 lung
  TGI: > 50 µM
SNB-19 CNS
  TGI: > 50 µM
M19-MEL melanoma
  TGI: > 50 µM
OVCAR-3 ovarian
  TGI: > 50 µM
IGROV1 ovarian
  TGI: > 50 µM
M14 melanoma
  TGI: > 50 µM
EKVX NSCLC
  TGI: > 50 µM
NCI-H226 lung
  TGI: > 50 µM

## COc1ccc(C(=O)Cc2ccc(Cl)cc2)cc1OC
U251 CNS
  TGI: > 100 µM
SK-MEL-5 melanoma
  TGI: > 100 µM
HL-60(TB) leukemia
  TGI: > 100 µM
HOP-18 NSCLC
  TGI: > 100 µM
TK-10 renal
  TGI: > 100 µM
LXFL 529 NSCLC
  TGI: > 100 µM
DLD-1 colon
  TGI: > 100 µM
HOP-62 NSCLC
  TGI: > 100 µM
UACC-62 melanoma
  TGI: > 100 µM
RXF 393 renal
  TGI: > 100 µM
LOX IMVI melanoma
  TGI: > 100 µM
KM20L2 colon
  TGI: > 100 µM
HCT-116 colon
  TGI: > 100 µM
SF-295 CNS
  TGI: > 100 µM
HT29 colon
  TGI: > 100 µM
RPMI-8226 leukemia
  TGI: > 100 µM
SNB-78 CNS
  TGI: > 100 µM
DMS 273 small cell lung
  TGI: > 100 µM
XF 498 CNS
  TGI: > 100 µM
DMS 114 small cell lung
  TGI: > 100 µM
RXF-631 renal
  TGI: > 100 µM
A549 NSCLC
  TGI: > 100 µM
SR leukemia
  TGI: > 100 µM
NCI-H23 lung
  TGI: > 100 µM
OVCAR-5 ovarian
  TGI: > 100 µM
SN12C renal
  TGI: > 100 µM
HCT-15 colon
  TGI: > 100 µM
SK-MEL-2 melanoma
  TGI: > 100 µM
UACC-257 melanoma
  TGI: > 100 µM
CCRF-CEM leukemia
  TGI: > 100 µM
A498 renal
  TGI: > 100 µM
ACHN renal
  TGI: > 100 µM
OVCAR-4 ovarian
  TGI: > 100 µM
SF-539 CNS
  TGI: > 100 µM
CAKI-1 renal
  TGI: > 100 µM
MALME-3M melanoma
  TGI: > 100 µM
MOLT-4 leukemia
  TGI: > 100 µM
SW-620 colon
  TGI: > 100 µM
OVCAR-8 ovarian
  TGI: > 100 µM
K-562 leukemia
  TGI: > 100 µM
SF-268 CNS
  TGI: > 100 µM
UO-31 renal
  TGI: > 100 µM
NCI-H460 lung
  TGI: > 100 µM
SK-OV-3 ovarian
  TGI: > 100 µM
HCC-2998 colon
  TGI: > 100 µM
SNB-75 CNS
  TGI: 86.9 µM
NCI-H522 lung
  TGI: > 100 µM
SNB-19 CNS
  TGI: > 100 µM
M19-MEL melanoma
  TGI: > 100 µM
OVCAR-3 ovarian
  TGI: > 100 µM
IGROV1 ovarian
  TGI: > 100 µM
M14 melanoma
  TGI: > 100 µM
EKVX NSCLC
  TGI: > 100 µM
NCI-H226 lung
  TGI: > 100 µM

— PubChem BioAssay (NCI)
